Experimental findings from patent US5821329A, “Cyclic peptide inhibitors of β1 and β2 integrin-mediated adhesion” (Tanabe Seiyaku Co., Ltd., priority 1996, dated 1998) are described below.

The subject of test [1] is JY cell adhesion to TNF stimulated endothelial cells (β2 integrins). Put plainly: JY-Endothelial Cell adhesion assay. It is filed as cell-based, human. The conditions noted are these: JY B cells + PMA on rTNF-stimulated HUVEC; no unit printed in the table (text gives IC50 and test concentrations in μM); read-out: IC50 for adhesion inhibition JY-EC. As for the experimental part: The JY-Endothelial Cell Assay
The following assay established the activity of the present compounds in inhibiting cell adhesion through β2 integrins in a representative in vitro system.
The human B cell line, JY, was cultured in RPMI media containing 10% fetal calf serum at 37° C., in a humidified CO2 atmosphere. Endothelial cells were grown to confluency in 96-well micro-titer assay plates, as in the Jurkat-EC assay. Before the assay, the endothelial cells were stimulated with 50 U/ml rTNF for 18-24 hours at 37° C. JY cells were loaded with the fluorescent dye indicator BCECF-AM as follows: JY cells were washed twice with HBSS and cells were resuspended in HBSS at 5×10^6 cells/ml; BCECF-AM (Molecular Probes), stock concentration=1 mg/ml in DMSO, was added to the JY cells to a final concentration of 2 μg/ml; cells were incubated in the dark at 37° C. for 30-45 minutes; washed twice with HBSS and used in the assay. […]
The assay plates were then typically incubated for 30 min at 37° C. and washed four times with PBS containing Mg^2+ and Ca^2+ (room temp). 100 μl of PBS containing Mg^2+ and Ca^2+ were added to each well and the fluorescence from the adherent BCECF-labelled cells was analyzed using a fluorescence plate reader. […]

In test [2] the test system is Jurkat cell adhesion to IL-1 stimulated endothelial cells (β1 integrins, α4 β1). Put plainly: Jurkat-Endothelial Cell Adhesion Assay. It is filed as cell-based, human. The conditions noted are these: Jurkat T cells on IL-1 stimulated HUVEC; no unit printed in the table (text gives IC50 and test concentrations in μM); read-out: IC50 for adhesion inhibition Jurk-EC. How it is done:
Jurkat-Endothelial Cell Adhesion Assay […] This assay measured the adhesive interactions of a T-cell line, Jurkat, known to express high levels of α4 β1, to endothelial cell monolayers in the presence of representative test compounds of the present invention. The test compounds were added in increasing concentrations to T-cells and then the T-cell/compound mixture was added to IL-1 stimulated endothelial cell monolayers. The plates were incubated, washed and the percentage of attached cells was quantitated. […] Human umbilical vein endothelial cells (HUVEC) were purchased from Clonetics (San Diego, Calif.) at passage number 2. The cells were grown on 0.5% porcine skin gelatin pre-coated flasks (Sigma, St. Louis, Mo.) in EGM-UV media (Clonetics, San Diego, Calif.) supplemented with 10% fetal bovine serum. Cells were re-fed every 2-3 days, reaching confluence by day 4 to 6. […] The endothelial cells were not used following passage 7. The T-cell line Jurkat was obtained from American Type Culture Collection and cultured in RPMI media containing 10% fetal calf serum. […] Following this incubation, the monolayers were washed twice with PBS containing 1 mM calcium chloride and 1 mM magnesium chloride and the plates were read using a Millipore Cytofluor 2300 (Marlboro, Mass.). […] Monolayers were also fixed in 3% paraformaldehyde and evaluated microscopically to verify the adhesion. […]

What is called IC50 is the midpoint of a concentration-inhibition curve. For the substance “(Fmoc)-Arg-Cys*-(β-Asp)-(ThioP)-Cys* [Compound 22]”, the IC50 in test [1] came out at 52 µM.
On to “(1-FCA)-Arg-Cys*-(β-Asp)-(ThioP)-Cys*-Ala-Ala-Asp-(OFm) [Compound 35]”, for which the half-maximal inhibitory concentration (IC50) in test [2] stood at 267 µM.
Same read-out and setting: the result for “(Ac)-Arg-Cys*-(β-Asp)-(ThioP)-Cys*-Ala-Asp-(OFm) [Compound 37]” reads 106 µM.
Consider “(9-FAc)-Arg-Cys*-(β-Asp)-(ThioP)-Cys*-(Abu)-Lys [Compound 65]”, for which, in test [1], the 50% inhibitory concentration (IC50) amounted to 353 µM.
